Measured values as given in patent US20240317749A1, “THERAPEUTIC COMPOUNDS” (priority 2021, published 2024).
Converted amounts (≈) assume the structure as drawn.

Columns and labels:
P. aeruginosa ATCC 27853 = assay: MIC assay, CLSI broth microdilution in CAMH broth; type: cell-based, Pseudomonas aeruginosa; conditions: P. aeruginosa ATCC 278538
Method: (§1) MIC assays for various Gram-negative and Gram-positive strains were conducted in accordance with the CLSI guidelines for broth microdilution. A 96-well plate containing CAMH broth with 2-fold serial dilution of compounds was inoculated with log-phase bacterial at 5×10^5 CFU/mL. The final volume in each well was 100 μL. Each compound was tested in duplicate. The microtiter plates were incubated in an aerobic environment for 18 hours at 37° C. Then the bacterial growth was tested by reading the plate with a SpectraMax iD5 plate reader (Molecular Devices, Inc.) at 600 nm. The MIC was defined as the lowest compound concentration that inhibited bacteria growth.
(§2) The following Gram-negative and Gram-positive strains were used in the aerobic MIC procedure: • P. aeruginosa ATCC 27853 • A. baumannii ATCC 19606 • E. coli ATCC 25922 • E. coli W4573 • E. coli N43 • K. pneumoniae ATCC 10031 • K. pneumoniae ATCC 13883 • S. sonnei ATCC 29930 • P. mirabilis ATCC 29906 • Methicillin-susceptible S. aureus (MSSA) ATCC 19636 • Methicillin-resistant S. aureus (MRSA) ATCC 33951

P. mirabilis ATCC 29906 = assay: MIC assay, CLSI broth microdilution in CAMH broth; type: cell-based, Proteus mirabilis
Method: as §1, §2

E. coli N43 = assay: MIC assay, CLSI broth microdilution in CAMH broth; type: cell-based, Escherichia coli
Method: as §1, §2

E. coli ATCC 25922 = assay: MIC assay, CLSI broth microdilution in CAMH broth; type: cell-based, Escherichia coli
Method: as §1, §2

E. coli W4573 = assay: MIC assay, CLSI broth microdilution in CAMH broth; type: cell-based, Escherichia coli
Method: as §1, §2

[1] = test system: Methicillin-susceptible S. aureus (MSSA) ATCC 19636; assay: MIC assay, CLSI broth microdilution in CAMH broth; type: cell-based, Staphylococcus aureus
Method: as §1, §2

K. pneumoniae ATCC 10031 = assay: MIC assay, CLSI broth microdilution in CAMH broth; type: cell-based, Klebsiella pneumoniae; conditions: K. pneumonias ATCC 10031
Method: as §1, §2

K. pneumoniae ATCC 13883 = assay: MIC assay, CLSI broth microdilution in CAMH broth; type: cell-based, Klebsiella pneumoniae; conditions: K. pneumonias ATCC 13883
Method: as §1, §2

[2] = test system: Methicillin-resistant S. aureus (MRSA) ATCC 33591; assay: MIC assay, CLSI broth microdilution in CAMH broth; type: cell-based, Staphylococcus aureus
Method: as §1, with “growth. […]” for “growth.”

[3] = test system: N. gonorrhoeae ATCC 49226; assay: MIC assay for N. gonorrhoeae, broth microdilution in Todd-Hewitt (TH) broth; type: cell-based; conditions: Neisseria gonorrhoeae, ATCC49226; Antibacterial Activity against N. gonorrhoeae ATCC 49226 in TH
Source text: MIC assays for N. gonorrhoeae were done using the ATCC 49226 strain. The procedure guidelines recommended by the Clinical and Laboratory Standards Institute (CLSI) for the broth microdilution MIC assay were modified by substituting […]. Also, the recommended bacterial inoculum was modified to meet the high inoculum demands needed for N. gonorrhoeae growth. A 96-well plate containing TH broth with 2-fold serial dilution of compounds was inoculated with log-phase bacterial at 2.5×10^7 CFU/mL. The final volume in each well was 200 μL. Each compound was tested in duplicate. The microtiter plates were incubated in an […] environment for 24 hours at 37° C. using the candle jar technique. Then the bacterial growth was tested by reading the plate with a SpectraMax iD5 plate reader (Molecular Devices, Inc.) at 600 nm. The MIC was defined as the lowest compound concentration that inhibited bacteria growth.

CC[C@H]1OC(=O)[C@H](C)[C@@H](O[C@H]2C[C@@](C)(OC)[C@@H](O)[C@H](C)O2)[C@H](C)[C@@H](O[C@@H]2O[C@H](C)C[C@H](N(C)C)[C@H]2O)[C@](C)(O)C[C@@H](C)CN(C)[C@H](C)[C@@H](O)[C@]1(C)O [AZM, azithromycin, reference compound]
Intrinsic MIC in CAMH (P. aeruginosa ATCC 27853): 64¤
Intrinsic MIC in CAMH (P. mirabilis ATCC 29906): 64¤
Intrinsic MIC in CAMH (E. coli N43): 1¤
Intrinsic MIC in CAMH (E. coli ATCC 25922): 8¤
Intrinsic MIC in CAMH (E. coli W4573): 4¤
Intrinsic MIC in CAMH [1]: 1¤
Intrinsic MIC in CAMH (K. pneumoniae ATCC 10031): 2¤
Intrinsic MIC in CAMH (K. pneumoniae ATCC 13883): 32¤
Intrinsic MIC in CAMH [2]: 1¤

Nc1nc(N)c2ccc3c(ccn3Cc3ccc(Br)cc3)c2n1 [Example 2, 7-(4-bromobenzyl)-7H-pyrrolo[2,3-h]quinazoline-2,4-diamine]
Intrinsic MIC in CAMH (P. aeruginosa ATCC 27853): >128¤
Intrinsic MIC in CAMH (P. mirabilis ATCC 29906): 4¤
Intrinsic MIC in CAMH (E. coli N43): ≤0.25¤
Intrinsic MIC in CAMH (E. coli ATCC 25922): 2¤
Intrinsic MIC in CAMH (E. coli W4573): 1¤
Intrinsic MIC in CAMH [1]: ≤0.25¤
MIC [3]: 2 mg/L (≈ 5.43 µM)
Intrinsic MIC in CAMH (K. pneumoniae ATCC 10031): ≤0.25¤
Intrinsic MIC in CAMH (K. pneumoniae ATCC 13883): 4¤
Intrinsic MIC in CAMH [2]: ≤0.25¤

Nc1nc(N)c2ccc3c(ccn3Cc3cccc(Br)c3)c2n1 [Example 3, 7-(3-bromobenzyl)-7H-pyrrolo[2,3-h]quinazoline-2,4-diamine]
Intrinsic MIC in CAMH (P. aeruginosa ATCC 27853): >64¤
Intrinsic MIC in CAMH (P. mirabilis ATCC 29906): >64¤
Intrinsic MIC in CAMH (E. coli N43): 1¤
Intrinsic MIC in CAMH (E. coli ATCC 25922): 32¤
Intrinsic MIC in CAMH (E. coli W4573): >64¤
Intrinsic MIC in CAMH [1]: 2¤
MIC [3]: 0.5 mg/L (≈ 1.36 µM)
Intrinsic MIC in CAMH (K. pneumoniae ATCC 10031): 4¤
Intrinsic MIC in CAMH (K. pneumoniae ATCC 13883): >64¤
Intrinsic MIC in CAMH [2]: 2¤

Nc1nc(N)c2ccc3c(ccn3Cc3ccccc3Br)c2n1 [Example 4, 7-(2-bromobenzyl)-7H-pyrrolo[2,3-h]quinazoline-2,4-diamine]
Intrinsic MIC in CAMH (P. aeruginosa ATCC 27853): >64¤
Intrinsic MIC in CAMH (P. mirabilis ATCC 29906): >64¤
Intrinsic MIC in CAMH (E. coli ATCC 25922): 4¤
Intrinsic MIC in CAMH (E. coli W4573): 2¤
Intrinsic MIC in CAMH [1]: ≤0.125¤
MIC [3]: 2 mg/L (≈ 5.43 µM)
Intrinsic MIC in CAMH (K. pneumoniae ATCC 10031): <0.125¤
Intrinsic MIC in CAMH (K. pneumoniae ATCC 13883): 8¤
Intrinsic MIC in CAMH [2]: ≤0.125¤

N#Cc1cccc(Cn2ccc3c4nc(N)nc(N)c4ccc32)c1 [Example 6, 3-((2,4-diamino-7H-pyrrolo[2,3-h]quinazolin-7-yl)methyl)benzonitrile]
Intrinsic MIC in CAMH (P. aeruginosa ATCC 27853): >64¤
Intrinsic MIC in CAMH (P. mirabilis ATCC 29906): >64¤
Intrinsic MIC in CAMH (E. coli N43): ≤0.015¤
Intrinsic MIC in CAMH (E. coli ATCC 25922): 4¤
Intrinsic MIC in CAMH (E. coli W4573): 4¤
Intrinsic MIC in CAMH [1]: 0.5¤
MIC [3]: 4 mg/L (≈ 12.7 µM)
Intrinsic MIC in CAMH (K. pneumoniae ATCC 10031): ≤0.125¤
Intrinsic MIC in CAMH (K. pneumoniae ATCC 13883): 16¤
Intrinsic MIC in CAMH [2]: 0.5¤

Nc1nc(N)c2ccc3c(ccn3Cc3ccc(C(F)(F)F)cc3)c2n1 [Example 7, 7-(4-(trifluoromethyl)benzyl)-7H-pyrrolo[2,3-h]quinazoline-2,4-diamine]
Intrinsic MIC in CAMH (P. aeruginosa ATCC 27853): >64¤
Intrinsic MIC in CAMH (P. mirabilis ATCC 29906): >64¤
Intrinsic MIC in CAMH (E. coli N43): ≤0.015¤
Intrinsic MIC in CAMH (E. coli ATCC 25922): 2¤
Intrinsic MIC in CAMH (E. coli W4573): 2¤
Intrinsic MIC in CAMH [1]: ≤0.25¤
MIC [3]: 2 mg/L (≈ 5.6 µM)
Intrinsic MIC in CAMH (K. pneumoniae ATCC 10031): ≤0.125¤
Intrinsic MIC in CAMH (K. pneumoniae ATCC 13883): 8¤
Intrinsic MIC in CAMH [2]: ≤0.25¤

Nc1nc(N)c2ccc3c(ccn3CC3CCCCC3)c2n1 [Example 27, 7-(cyclohexylmethyl)-7H-pyrrolo[2,3-h]quinazoline-2,4-diamine]
Intrinsic MIC in CAMH (P. aeruginosa ATCC 27853): >64¤
Intrinsic MIC in CAMH (P. mirabilis ATCC 29906): >64¤
Intrinsic MIC in CAMH (E. coli ATCC 25922): 4¤
Intrinsic MIC in CAMH (E. coli W4573): 2¤
Intrinsic MIC in CAMH [1]: ≤0.125¤
MIC [3]: 4 mg/L (≈ 13.5 µM)
Intrinsic MIC in CAMH (K. pneumoniae ATCC 10031): <0.125¤
Intrinsic MIC in CAMH (K. pneumoniae ATCC 13883): 4¤
Intrinsic MIC in CAMH [2]: ≤0.125¤

Nc1nc(N)c2ccc3c(ccn3Cc3ccc(-c4ccccc4C(F)(F)F)cc3)c2n1 [Example 36, 7-((2′-(trifluoromethyl)-[1,1′-biphenyl]-4-yl)methyl)-7H-pyrrolo[2,3-h]quinazoline-2,4-diamine]
Intrinsic MIC in CAMH (P. aeruginosa ATCC 27853): >64¤
Intrinsic MIC in CAMH (P. mirabilis ATCC 29906): >64¤
Intrinsic MIC in CAMH (E. coli N43): <0.125¤
Intrinsic MIC in CAMH (E. coli W4573): 8¤
Intrinsic MIC in CAMH [1]: 0.5¤
MIC [3]: 8 mg/L (≈ 18.5 µM)
Intrinsic MIC in CAMH (K. pneumoniae ATCC 10031): 1¤
Intrinsic MIC in CAMH (K. pneumoniae ATCC 13883): >64¤
Intrinsic MIC in CAMH [2]: 0.5¤

N#Cc1cc(F)ccc1-c1ccc(Cn2ccc3c4nc(N)nc(N)c4ccc32)cc1 [Example 37, 4′-((2,4-diamino-7H-pyrrolo[2,3-h]quinazolin-7-yl)methyl)-4-fluoro-[1,1′-biphenyl]-2-carbonitrile]
Intrinsic MIC in CAMH (P. aeruginosa ATCC 27853): >64¤
Intrinsic MIC in CAMH (P. mirabilis ATCC 29906): >64¤
Intrinsic MIC in CAMH (E. coli N43): <0.125¤
Intrinsic MIC in CAMH (E. coli W4573): 8¤
Intrinsic MIC in CAMH [1]: 0.125¤
MIC [3]: 1 mg/L (≈ 2.45 µM)
Intrinsic MIC in CAMH (K. pneumoniae ATCC 10031): 0.25¤
Intrinsic MIC in CAMH (K. pneumoniae ATCC 13883): >64¤
Intrinsic MIC in CAMH [2]: 0.125¤

Nc1nc(N)c2ccc3c(ccn3Cc3ccc(C#Cc4ccccc4)cc3)c2n1 [Example 43, 7-(4-(phenylethynyl)benzyl)-7H-pyrrolo[2,3-h]quinazoline-2,4-diamine]
Intrinsic MIC in CAMH (P. aeruginosa ATCC 27853): >64¤
Intrinsic MIC in CAMH (P. mirabilis ATCC 29906): >64¤
Intrinsic MIC in CAMH (E. coli N43): 32¤
Intrinsic MIC in CAMH (E. coli W4573): >64¤
Intrinsic MIC in CAMH [1]: 32¤
MIC [3]: > 64 mg/L
Intrinsic MIC in CAMH (K. pneumoniae ATCC 10031): >64¤
Intrinsic MIC in CAMH (K. pneumoniae ATCC 13883): >64¤
Intrinsic MIC in CAMH [2]: 2¤

COc1cc(Cc2cnc(N)nc2N)cc(OC)c1OC [TMP, reference compound]
Intrinsic MIC in CAMH (P. aeruginosa ATCC 27853): >64¤
Intrinsic MIC in CAMH (P. mirabilis ATCC 29906): 1¤
Intrinsic MIC in CAMH (E. coli N43): <0.125¤
Intrinsic MIC in CAMH (E. coli ATCC 25922): 0.5¤
Intrinsic MIC in CAMH (E. coli W4573): 0.5¤
Intrinsic MIC in CAMH [1]: 0.5¤
Intrinsic MIC in CAMH (K. pneumoniae ATCC 10031): 0.25¤
Intrinsic MIC in CAMH (K. pneumoniae ATCC 13883): 2¤
Intrinsic MIC in CAMH [2]: 0.5¤
